Experimental data as given in patent publication US20230212208A1, “Colour Tunable Luminescent Bidentate Platinum (II) Complexes for Probing Mismatch DNA” (THE UNIVERSITY OF HONG KONG, priority 2019, published 2023).
Where two headings read alike, the source gives them in different places.

Tests used:
[1] = system: cognate matched DNA (CG match, SEQ ID NO: 3); settings: 20 μM in Tris buffer pH 7.1, 1-fold matched DNA
Experimental: The emission spectra for detection of CC mismatched DNA and matched DNA were determined (FIGS. 2A and 2B).

[2] = system: AA hairpin mismatched DNA (SEQ ID NO: 7); settings: 20 μM in Tris buffer, λex=410 nm, AA hairpin mismatch
Description: (§1) The emission increased around 3-fold for CA (SEQ ID NO: 5) and TC hairpin mismatched DNA (SEQ ID NO: 6), and 2-fold for AA hairpin mismatched DNA (SEQ ID NO: 7) (FIG. 5A).

[3] = system: CA hairpin mismatched DNA (SEQ ID NO: 5); settings: 20 μM in Tris buffer, λex=410 nm, CA hairpin mismatch
Description: as §1

[4] = system: TC hairpin mismatched DNA (SEQ ID NO: 6); settings: 20 μM in Tris buffer, λex=410 nm, TC hairpin mismatch
Description: as §1

[5] = system: hairpin CC mismatched DNA with different adjacent base pairs; settings: Pt(II) complex to DNA ratio 1.0
Description: Especially, the 5′- . . . […] GCA . . . -3′ (SEQ ID NO: 24), 5′- . . . GCC . . . -3′ (SEQ ID NO: 25), GCG . . . -3′ (SEQ ID NO: 26) and 5′- . . .

Pt(II)(benzo[h]quinolone-1-benzyl-3-butylimidazolium bromide [PtCN2]
emission enhancement at high-energy emission [1]: no significant emission enhancement
emission increase at high-energy fingerprint spectrum [2]: ~2 fold
emission increase at high-energy fingerprint spectrum [3]: around 3 fold
emission increase at high-energy fingerprint spectrum [4]: around 3 fold
emission intensity at 497 nm over matched DNA ([5]; CC mismatch 5'-ACC-3' (SEQ ID NO: 17) vs matched DNA): 5 fold
emission intensity at 497 nm over matched DNA ([5]; CC mismatch 5'-GCA-3' (SEQ ID NO: 24) vs matched DNA): 5 fold
emission intensity at 497 nm over matched DNA ([5]; CC mismatch 5'-GCC-3' (SEQ ID NO: 25) vs matched DNA): 5 fold
emission intensity at 497 nm over matched DNA ([5]; CC mismatch 5'-GCG-3' (SEQ ID NO: 26) vs matched DNA): 5 fold
emission response at 497 nm, higher than matched DNA ([5]; CC mismatch 5'-GCT-3' (SEQ ID NO: 27) vs matched DNA (SEQ ID NO: 32)): 6 fold
